Measured values as given in ChEMBL document CHEMBL1743341, “Cytochrome p450 enzymes mechanism based inhibitors: common sub-structures and reactivity” (Curr Drug Metab, 2005).

How the values were obtained:
Type in all cases: ADME
Cytochrome P450 2B4 [1] = target: T1, Cytochrome P450 2B4 (Oryctolagus cuniculus, UniProt P00178); experiment: Mechanism based inhibition of rabbit cytochrome P450 CYP2B4 partition ratio
T1 sequence (P00178 whole entry): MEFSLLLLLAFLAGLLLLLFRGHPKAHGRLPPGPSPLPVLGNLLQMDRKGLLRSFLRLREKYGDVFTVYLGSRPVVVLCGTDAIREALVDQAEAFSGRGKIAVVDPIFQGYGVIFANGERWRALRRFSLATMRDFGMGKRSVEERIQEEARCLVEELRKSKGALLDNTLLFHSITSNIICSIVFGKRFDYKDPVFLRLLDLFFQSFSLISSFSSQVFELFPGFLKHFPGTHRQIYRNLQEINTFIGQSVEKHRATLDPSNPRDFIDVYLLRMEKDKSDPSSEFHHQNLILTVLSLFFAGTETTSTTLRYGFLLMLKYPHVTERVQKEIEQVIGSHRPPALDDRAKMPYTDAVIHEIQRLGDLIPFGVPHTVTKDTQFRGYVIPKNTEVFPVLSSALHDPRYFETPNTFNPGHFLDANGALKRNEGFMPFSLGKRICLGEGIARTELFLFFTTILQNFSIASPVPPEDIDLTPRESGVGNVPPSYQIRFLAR

Cytochrome P450 2B4 [2] = target: T1, Cytochrome P450 2B4; experiment: (§1) Mechanism based inhibition of rabbit cytochrome P450 CYP2B4 1-Phenylethanol oxidation was used as probe activity
CYP2B4 = target: T2, CYP2B4 (Oryctolagus cuniculus, UniProt P00178); experiment: as §1; conditions: rabbit, probe 1-phenylethanol (oxidation)
T2 sequence (P00178 whole entry): T1 sequence (P00178 whole entry)

Cytochrome P450 2C5 = Cytochrome P450 2C5 (Oryctolagus cuniculus, UniProt P00179); experiment: Mechanism based inhibition of rabbit cytochrome P450 CYP2C5
Sequence of Cytochrome P450 2C5 (P00179 whole entry): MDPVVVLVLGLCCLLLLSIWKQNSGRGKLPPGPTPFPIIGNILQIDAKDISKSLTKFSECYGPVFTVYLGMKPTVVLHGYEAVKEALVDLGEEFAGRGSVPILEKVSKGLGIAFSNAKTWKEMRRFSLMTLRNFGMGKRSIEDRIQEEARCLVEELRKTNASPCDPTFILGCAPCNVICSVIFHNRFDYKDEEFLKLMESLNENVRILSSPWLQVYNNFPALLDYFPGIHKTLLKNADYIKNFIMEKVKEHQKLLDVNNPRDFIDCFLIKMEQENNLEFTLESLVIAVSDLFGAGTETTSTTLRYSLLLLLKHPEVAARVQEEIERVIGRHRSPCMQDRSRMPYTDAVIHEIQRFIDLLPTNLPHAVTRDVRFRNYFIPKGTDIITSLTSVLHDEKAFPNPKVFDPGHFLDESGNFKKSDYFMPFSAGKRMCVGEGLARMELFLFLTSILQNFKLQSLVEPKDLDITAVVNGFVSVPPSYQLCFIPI

[3] = target: Cholesterol side-chain cleavage enzyme, mitochondrial (Bos taurus, UniProt P00189); experiment: Mechanism based inhibition of bovine cytochrome P450 CYP11A1; conditions: cattle
Sequence of Cholesterol side-chain cleavage enzyme, mitochondrial (P00189 whole entry): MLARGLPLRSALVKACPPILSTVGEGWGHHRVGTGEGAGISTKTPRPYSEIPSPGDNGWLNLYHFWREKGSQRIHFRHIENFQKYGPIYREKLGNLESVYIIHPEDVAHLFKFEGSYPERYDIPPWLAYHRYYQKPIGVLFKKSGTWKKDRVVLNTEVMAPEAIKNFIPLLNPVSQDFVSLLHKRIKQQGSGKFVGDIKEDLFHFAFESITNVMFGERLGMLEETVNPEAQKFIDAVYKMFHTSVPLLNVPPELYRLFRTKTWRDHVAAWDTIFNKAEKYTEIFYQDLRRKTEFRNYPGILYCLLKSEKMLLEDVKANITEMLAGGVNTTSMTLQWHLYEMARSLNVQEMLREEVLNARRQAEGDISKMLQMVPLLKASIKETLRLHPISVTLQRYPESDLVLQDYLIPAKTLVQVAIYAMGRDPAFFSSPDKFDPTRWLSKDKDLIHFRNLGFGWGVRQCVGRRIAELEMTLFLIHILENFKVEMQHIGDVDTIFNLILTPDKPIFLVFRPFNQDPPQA

Cytochrome P450 1A2 = target: T3, Cytochrome P450 1A2 (Rattus norvegicus, UniProt P04799); experiment: (§2) Mechanism based inhibition of rat cytochrome P450 CYP1A2 measured by zolmitriptan metabolism
T3 sequence (P04799 whole entry): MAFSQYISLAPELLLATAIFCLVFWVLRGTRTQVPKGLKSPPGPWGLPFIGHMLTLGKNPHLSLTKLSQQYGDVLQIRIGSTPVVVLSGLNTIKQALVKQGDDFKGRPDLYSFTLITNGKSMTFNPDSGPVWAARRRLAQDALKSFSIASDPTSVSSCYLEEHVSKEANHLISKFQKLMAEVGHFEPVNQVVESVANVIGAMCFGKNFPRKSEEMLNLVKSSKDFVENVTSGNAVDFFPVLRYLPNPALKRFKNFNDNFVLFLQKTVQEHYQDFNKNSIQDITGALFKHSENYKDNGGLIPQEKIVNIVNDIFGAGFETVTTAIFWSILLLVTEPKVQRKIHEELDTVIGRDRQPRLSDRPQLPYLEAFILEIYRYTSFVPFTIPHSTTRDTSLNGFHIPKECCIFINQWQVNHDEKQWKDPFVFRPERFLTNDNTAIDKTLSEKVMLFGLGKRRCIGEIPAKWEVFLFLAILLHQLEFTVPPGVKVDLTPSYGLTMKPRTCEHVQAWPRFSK

CYP1A2 = target: T4, CYP1A2 (Rattus norvegicus, UniProt P04799); experiment: as §2; conditions: rat, probe zolmitriptan (metabolism)
T4 sequence (P04799 whole entry): T3 sequence (P04799 whole entry)

Cytochrome P450 3A4 = Cytochrome P450 3A4 (Homo sapiens, UniProt P08684); experiment: (§3) Mechanism based inhibition of human cytochrome P450 CYP3A4 measured by 7BFC O-debenzylation
Sequence of Cytochrome P450 3A4 (P08684 whole entry): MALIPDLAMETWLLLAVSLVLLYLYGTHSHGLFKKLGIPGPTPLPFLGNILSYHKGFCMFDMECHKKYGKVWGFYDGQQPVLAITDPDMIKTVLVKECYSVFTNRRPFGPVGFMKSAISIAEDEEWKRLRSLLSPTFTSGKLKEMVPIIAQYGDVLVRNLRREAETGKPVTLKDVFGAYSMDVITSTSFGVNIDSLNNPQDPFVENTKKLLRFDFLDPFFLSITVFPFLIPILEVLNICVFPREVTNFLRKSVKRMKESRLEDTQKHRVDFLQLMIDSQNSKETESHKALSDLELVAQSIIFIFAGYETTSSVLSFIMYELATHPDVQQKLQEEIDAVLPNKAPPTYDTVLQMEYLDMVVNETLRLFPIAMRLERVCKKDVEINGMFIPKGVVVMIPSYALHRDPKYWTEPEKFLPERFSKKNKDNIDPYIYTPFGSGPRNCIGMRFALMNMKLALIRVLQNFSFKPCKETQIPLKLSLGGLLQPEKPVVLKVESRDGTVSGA

CYP3A4 = CYP3A4 (Homo sapiens, UniProt P08684); experiment: as §3; conditions: human, probe 7BFC (O-debenzylation)
Sequence of CYP3A4 (P08684 whole entry): as above

CYP2B6 = target: T5, CYP2B6 (Homo sapiens, UniProt P20813); experiment: Mechanism based inhibition of human cytochrome P450 CYP2B6 measured by 7-EFC O-deethylation activity; conditions: probe 7-EFC (O-deethylation)
T5 sequence (P20813 whole entry): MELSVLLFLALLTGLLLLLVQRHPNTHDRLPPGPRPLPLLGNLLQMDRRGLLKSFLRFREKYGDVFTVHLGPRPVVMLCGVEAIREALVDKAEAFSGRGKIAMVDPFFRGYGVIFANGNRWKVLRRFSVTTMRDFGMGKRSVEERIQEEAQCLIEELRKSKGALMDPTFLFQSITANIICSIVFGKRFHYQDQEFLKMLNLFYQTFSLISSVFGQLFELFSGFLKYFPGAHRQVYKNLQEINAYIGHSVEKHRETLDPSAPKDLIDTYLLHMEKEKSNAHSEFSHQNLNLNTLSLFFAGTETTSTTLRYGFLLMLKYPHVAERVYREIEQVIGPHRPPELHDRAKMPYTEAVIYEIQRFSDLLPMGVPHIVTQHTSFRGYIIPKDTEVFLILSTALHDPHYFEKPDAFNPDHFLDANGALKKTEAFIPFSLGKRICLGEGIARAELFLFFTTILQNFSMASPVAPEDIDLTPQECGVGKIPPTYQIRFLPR

Cytochrome P450 2C11 = target: T6, Cytochrome P450 2C11 (Rattus norvegicus, UniProt P08683); experiment: Mechanism based inhibition of rat cytochrome P450 CYP2C11 measured by testosterone hydroxylation at positions 2-alpha and 16-alpha
T6 sequence (P08683 whole entry): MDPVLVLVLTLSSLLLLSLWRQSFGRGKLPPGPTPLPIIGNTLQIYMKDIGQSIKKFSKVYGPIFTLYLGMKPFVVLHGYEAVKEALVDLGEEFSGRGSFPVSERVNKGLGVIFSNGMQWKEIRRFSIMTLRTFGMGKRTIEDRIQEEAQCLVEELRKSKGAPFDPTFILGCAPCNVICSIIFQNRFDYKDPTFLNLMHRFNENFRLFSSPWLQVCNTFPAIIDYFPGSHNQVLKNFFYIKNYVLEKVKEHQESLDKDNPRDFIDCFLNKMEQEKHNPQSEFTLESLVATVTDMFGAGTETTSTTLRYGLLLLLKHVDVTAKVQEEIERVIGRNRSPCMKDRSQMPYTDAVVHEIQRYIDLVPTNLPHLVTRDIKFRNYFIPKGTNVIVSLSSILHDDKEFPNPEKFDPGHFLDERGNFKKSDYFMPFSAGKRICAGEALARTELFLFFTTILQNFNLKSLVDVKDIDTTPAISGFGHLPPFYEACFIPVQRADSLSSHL

Cytochrome P450 3A2 = Cytochrome P450 3A2 (Rattus norvegicus, UniProt P05183); experiment: Mechanism based inhibition of rat cytochrome P450 CYP3A2 measured by testosterone hydroxylation at positions 2-beta and 6-beta
Sequence of Cytochrome P450 3A2 (P05183 whole entry): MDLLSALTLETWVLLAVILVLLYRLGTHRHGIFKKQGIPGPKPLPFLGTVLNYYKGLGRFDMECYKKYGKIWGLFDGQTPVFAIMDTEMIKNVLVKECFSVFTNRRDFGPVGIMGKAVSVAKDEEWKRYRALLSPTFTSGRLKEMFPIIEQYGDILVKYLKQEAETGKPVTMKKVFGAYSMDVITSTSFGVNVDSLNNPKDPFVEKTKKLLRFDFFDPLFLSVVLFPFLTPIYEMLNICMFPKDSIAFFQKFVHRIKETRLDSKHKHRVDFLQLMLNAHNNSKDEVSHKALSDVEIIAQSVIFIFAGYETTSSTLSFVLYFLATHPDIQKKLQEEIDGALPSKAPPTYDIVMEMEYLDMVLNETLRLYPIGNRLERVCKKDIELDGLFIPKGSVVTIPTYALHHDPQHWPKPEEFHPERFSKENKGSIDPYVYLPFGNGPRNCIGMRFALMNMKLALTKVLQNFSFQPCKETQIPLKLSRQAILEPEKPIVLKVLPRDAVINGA

## COC(=O)c1csc2snnc12
Cytochrome P450 2B4 [1]
  partition_ratio: 2100
Cytochrome P450 2B4 [2]
  Ki: 2000 µM
CYP2B4
  kinact: 0.000667 s⁻¹

## C[C@]12CC[C@H]3[C@@H](CC=C4C[C@@H](O)CC[C@@]43C)[C@@H]1CC[C@@H]2C(=O)C(Cl)Cl
Cytochrome P450 2C5
  mechanism based inhibition: Cytochrome P450 mechanistic inhibitor: PMID 9168258

## CC(C)CCS[C@@H](C)[C@H]1CC[C@H]2[C@@H]3CC=C4C[C@@H](O)CC[C@]4(C)[C@H]3CC[C@]12C
[3]
  mechanism based inhibition: Cytochrome P450 mechanistic inhibitor: PMID 7599132

## COCCCC/C(=N\OCCN)c1ccc(C(F)(F)F)cc1 [FLUVOXAMINE]
Cytochrome P450 1A2
  Ki: 57.4 µM
CYP1A2
  kinact: 0.00267 s⁻¹

## CC1(C)C=Cc2c(ccc3c2OC[C@@H](c2ccc(O)cc2O)C3)O1 [GLABRIDIN]
Cytochrome P450 3A4
  Ki: 7 µM
CYP3A4
  kinact: 0.00233 s⁻¹
CYP2B6
  kinact: 0.00133 s⁻¹

## [N]=O [NITRIC OXIDE]
Cytochrome P450 2C11
  mechanism based inhibition: Cytochrome P450 mechanistic inhibitor: PMID 9400024
Cytochrome P450 3A2
  mechanism based inhibition: Cytochrome P450 mechanistic inhibitor: PMID 9400024
